Data from the NIST ThermoML archive (doi:10.1016/j.tca.2014.10.002).
Values joined by “and” are separate entries in the source; they are usually repeats but may differ in a detail not shown here. Identical values can stand only once.

Columns and labels:
[1] = Molar enthalpy of transition or fusion; settings: Crystal; DSC
[2] = molar heat capacity at constant pressure; settings: 101.33 kPa, Large sample (1 g) DSC
[3] = Crystal; DTA

OC1CCC1 [cyclobutanol]
Settings	Molar enthalpy of transition or fusion [kcal/mol]	Normal melting temperature [°C]
[1]	1.89	–
[3]	–	-45.61

[2], Liquid
Settings	molar heat capacity at constant pressure
258.09 K	132.4 J/K/mol and 132.7 J/K/mol
263.2 K	134.8 J/K/mol and 134.7 J/K/mol
268.3 K	137 J/K/mol and 137.2 J/K/mol
273.41 K	139.4 J/K/mol
278.51 K	141.8 J/K/mol
283.62 K	144.6 J/K/mol and 144.4 J/K/mol
288.72 K	147.4 J/K/mol and 147.3 J/K/mol
293.83 K	150.5 J/K/mol and 150.2 J/K/mol
298.93 K	153.7 J/K/mol and 153.8 J/K/mol
304.04 K	157 J/K/mol and 157.1 J/K/mol
309.14 K	160.5 J/K/mol
314.25 K	164.1 J/K/mol and 164 J/K/mol
319.35 K	168 J/K/mol and 167.9 J/K/mol
324.46 K	171.9 J/K/mol and 171.6 J/K/mol
329.57 K	175.4 J/K/mol
334.67 K	179.4 J/K/mol
339.77 K	183.6 J/K/mol and 183.1 J/K/mol
344.88 K	187.5 J/K/mol and 187 J/K/mol
349.98 K	191.6 J/K/mol
355.09 K	195.6 J/K/mol

OC1CCCCCC1 [cycloheptanol]
[2]
Settings	molar heat capacity at constant pressure
260.59 K, Crystal	195.3 J/K/mol
260.73 K, Crystal	195.4 J/K/mol
262 K, Crystal	196.4 J/K/mol and 196.5 J/K/mol
264 K, Crystal	198 J/K/mol and 198.1 J/K/mol
266 K, Crystal	199.8 J/K/mol
268 K, Crystal	201.8 J/K/mol and 201.7 J/K/mol
270 K, Crystal	204 J/K/mol
271.34 K, Crystal	205.2 J/K/mol
271.43 K, Crystal	205.4 J/K/mol
286.01 K, Liquid	236.1 J/K/mol
286.13 K, Liquid	236.3 J/K/mol
290 K, Liquid	240.6 J/K/mol
295 K, Liquid	246.5 J/K/mol
300 K, Liquid	252.3 J/K/mol
305 K, Liquid	258.1 J/K/mol and 258.2 J/K/mol
310 K, Liquid	263.8 J/K/mol
315 K, Liquid	269.4 J/K/mol and 269.5 J/K/mol
320 K, Liquid	274.8 J/K/mol and 274.9 J/K/mol
325 K, Liquid	280.3 J/K/mol and 280.2 J/K/mol
330 K, Liquid	285.3 J/K/mol and 285.2 J/K/mol
335 K, Liquid	289.9 J/K/mol and 290 J/K/mol
340 K, Liquid	294.4 J/K/mol
345 K, Liquid	299.2 J/K/mol
350 K, Liquid	303.6 J/K/mol
354.82 K, Liquid	307.6 J/K/mol
355 K, Liquid	307.7 J/K/mol
357.82 K, Liquid	309.7 J/K/mol

OC1CCCCC1 [cyclohexanol]
[2]
Settings	molar heat capacity at constant pressure
261.42 K, Crystal	162.6 J/K/mol
261.48 K, Crystal	162.8 J/K/mol
264 K, Crystal	164.5 J/K/mol and 164.7 J/K/mol
267 K, Crystal	166.8 J/K/mol and 167 J/K/mol
270 K, Crystal	169.1 J/K/mol and 169.4 J/K/mol
273 K, Crystal	171.7 J/K/mol and 172 J/K/mol
276 K, Crystal	174.5 J/K/mol and 174.9 J/K/mol
279 K, Crystal	177.4 J/K/mol and 177.9 J/K/mol
282 K, Crystal	180.8 J/K/mol and 181.4 J/K/mol
284.5 K, Crystal	184.9 J/K/mol
284.95 K, Crystal	184.8 J/K/mol
305.05 K, Liquid	218.3 J/K/mol
305.18 K, Liquid	218.6 J/K/mol
310 K, Liquid	223.8 J/K/mol and 224 J/K/mol
315 K, Liquid	229.6 J/K/mol and 229.7 J/K/mol
320 K, Liquid	235.5 J/K/mol and 235.3 J/K/mol
325 K, Liquid	241.3 J/K/mol and 241.1 J/K/mol
330 K, Liquid	246.7 J/K/mol and 246.8 J/K/mol
335 K, Liquid	252 J/K/mol and 252.2 J/K/mol
340 K, Liquid	257.4 J/K/mol and 257.6 J/K/mol
345 K, Liquid	262.8 J/K/mol and 263 J/K/mol
350 K, Liquid	268 J/K/mol
355 K, Liquid	272.3 J/K/mol and 272.5 J/K/mol
357.82 K, Liquid	274.7 J/K/mol
357.94 K, Liquid	274.7 J/K/mol

OC1CCCC1 [cyclopentanol]
[2], Liquid
Settings	molar heat capacity at constant pressure
265.06 K	157.6 J/K/mol
270 K	160.7 J/K/mol
275 K	164.2 J/K/mol
280 K	167.8 J/K/mol and 167.9 J/K/mol
285 K	171.6 J/K/mol and 171.7 J/K/mol
290 K	175.7 J/K/mol and 175.9 J/K/mol
295 K	180 J/K/mol and 180.1 J/K/mol
300 K	184.3 J/K/mol and 184.4 J/K/mol
305 K	188.6 J/K/mol and 188.7 J/K/mol
310 K	193 J/K/mol and 193.1 J/K/mol
315 K	197.4 J/K/mol and 197.6 J/K/mol
320 K	201.8 J/K/mol and 202 J/K/mol
325 K	206.2 J/K/mol and 206.4 J/K/mol
330 K	210.5 J/K/mol and 210.7 J/K/mol
335 K	215 J/K/mol and 215.1 J/K/mol
340 K	219.5 J/K/mol
345 K	223.8 J/K/mol and 223.7 J/K/mol
350 K	228.1 J/K/mol and 228 J/K/mol
354.91 K	232 J/K/mol
355 K	232 J/K/mol
357.78 K	234.1 J/K/mol
